# Experimental data: article PMC8778187, “A New Oxygen Containing Pyclen-Type Ligand as a Manganese(II) Binder for MRI and ^52Mn PET Applications: Equilibrium, Kinetic, Relaxometric, Structural and Radiochemical Studies” (Molecules, 2022)
# Assays:
# [1] = 1H relaxometry: r1p and r2p relaxivity of Mn(II) complexes; type: physicochemical; conditions: for r1p / r2p: Mn(II) complex, pH = 7.4
# Protocol: The relaxivity of Mn(II) complexes is one of the most important parameters that directly correlates with its MRI efficacy. Relaxivity is defined as the longitudinal (r1p) and transverse (r2p) water proton relaxation rate enhancement, provided by 1.0 mM concentration of the paramagnetic species. The relaxivity (r1p and r2p) of the Mn(II) complexes were determined using relaxometers operating at 0.49 T and 1.41 T field strength, in a HEPES buffer (I = 0.15 M NaCl) at different temperatures from the slopes of plots 1/T1,2 vs. (Mn(II)) for 4 concentrations of Mn(II) (data shown in Supporting Information Figures S24 and S25), and they are compared in Table 4.
# The ^1H longitudinal (T1) and transverse (T2) relaxation times were measured by using Bruker Minispec MQ-20 and MQ-60 NMR analyzers (Bruker corporation, Billerica, MA, USA). The temperature of the sample holder was set at 25.0 or 37 (±0.2) °C, and controlled with a circulating water bath thermostat. The T1 values of the samples were determined by means of the inversion recovery method (180°–τ–90°), averaging 4–6 data points obtained at 12 different τ delay times, while T2 data were collected by using the Carl–Purcell–Meiboom–Gill (CPMG) spin-echo pulse sequence. Relaxivities were determined by published procedures (from the slopes of the plots of 1/T1,2 vs. (Mn(II)) for 4 concentrations of Mn(II)), in samples of 0.3–0.4 mL volume (data shown in Figures S24 and S25, Supplementary Information). The pH were set by either using a 0.05 M 4-(2-hydroxyethyl)-1-piperazine-ethanesulfonic acid (HEPES) buffer (pH = 7.4) or monitored (pH profiles) using a Metrohm 827 pH lab pH meter and a Metrohm 6.0234.100 combined electrode, in the pH range of 1.75–11.8.
# [2] = Stability and protonation constants of Ca(II) complexes by pH-potentiometry; type: physicochemical; conditions: Ca^2+ complex; T = 25 °C, I = 0.15 M NaCl
# Protocol: The stability and protonation constants of the metal complexes formed with H2OPC2A were determined by pH-potentiometric titrations, but, for the Cu(II) complex, UV-Vis spectrophotometric measurements were also carried out to supplement the pH-potentiometric titration data (Figures S21 and S22, Supporting Information).
# Metal stock solutions were prepared from the highest analytical grade chemicals, and their concentrations were determined by complexometric titration with standardized Na2H2EDTA and eriochrome black T indicator in the presence of ascorbic acid, and potassium hydrogen tartrate for MnCl2, murexide indicator for CaCl2 and CuCl2, eriochrome black T for MgCl2 and xylenol orange in the presence of hexamethylenetetramine for the solution of ZnCl2. The concentration of the ligand stock solution was determined by pH-potentiometric titrations. The protonation constants of the ligand were determined by the pH potentiometric titrations with 0.15 M NaOH, using 0.0025 M ligand solutions. The ionic strength was set to 0.15 M by using NaCl. […]
# To avoid the effect of CO2, N2 gas was bubbled through the solutions during the titrations process. […] For the calibration of the pH meter, KH-phtalate (pH = 4.005) and borax (pH = 9.177) buffers were used, and the H^+ ion concentrations were calculated from the measured pH values by applying the method proposed by Irving et al.. […]
"r1p in pure aqueous solution ([1]; 1.41 T, 25 °C) [mM⁻¹ s⁻¹]","r1p near pH = 1.8 ([1]; 1.41 T, 25 °C, complex protonated and dissociated at low pH) [mM^−1s^−1]",log KMnL [2],"r1p ([1]; 0.49 T, 25 °C)","r2p ([1]; 0.49 T, 25 °C)","r1p ([1]; 0.49 T, 37 °C)","r2p ([1]; 0.49 T, 37 °C)","r1p ([1]; 1.41 T, 25 °C)","r2p ([1]; 1.41 T, 25 °C)","r1p ([1]; 1.41 T, 37 °C)","r2p ([1]; 1.41 T, 37 °C)",SMILES
2.70,6.51,–,–,–,–,–,–,–,–,–,"O=C([O-])CN1CCOCCN(CC(=O)[O-])Cc2cccc(n2)C1.[Mn+2] [[Mn(3,9-OPC2A)]]"
–,–,8.27(1),3.13(2) mM^−1s^−1,5.15(3) mM^−1s^−1,2.54(1) mM^−1s^−1,4.17(4) mM^−1s^−1,2.72(2) mM^−1s^−1,9.90(5) mM^−1s^−1,2.06(1) mM^−1s^−1,7.37(3) mM^−1s^−1,"O=C(O)CN1CCOCCN(CC(=O)O)Cc2cccc(n2)C1 [H23,9-OPC2A, 6-Oxa-3,9,15-triazabicyclo(9.3.1)pentadeca-1(15),11,13-triene-3,9-diacetic acid]"
